system: Glucokinase known as hexokinase IV (human GK isoform 1, pancreas form and human GK isoform 2, liver form); assay: Glucokinase enzymatic activity assay (G6PDH-coupled, NADH absorbance at 340 nm); type: biochemical; conditions: 5 mM glucose, 1 mM ATP, 37 nM GK, 10 min at room temperature
Description: Glucokinase known as hexokinase IV (human GK isoform 1, pancreas form and human GK isoform 2, liver form) was cloned into an expression vector pET15 fx (Novagen Co.), transformed to E. coli BL21 (DE3) (Invitrogen Co.) strain, expressed, and purified using a nickel column. Then, the glucokinase obtained from dialysis was used in the following assay.
Glucokinase assay was performed by measuring absorbance according to the conventional manner. Briefly speaking, glucokinase converts the substrate glucose to glucose-6-phosphate under certain conditions, and glucose-6-phosphate dehydrogenase irreversibly converts glucose-6-phosphate to gluconate-6-phosphate. During this procedure, NADH is formed, and its absorbance is measured to calculate the enzymatic activity.
In the measurement of the enzymatic activity, each compound was diluted by two-fold from the maximum to the minimum concentrations, and 2 μl of each solution was added to 96 well UV plate (BD bioscience). 60 μl of the first mixture (final concentrations 25 mM Hepes, 25 mM KCl, 2 mM MgCl2, 1 mM DTT) was added, and thoroughly mixed. 38 μl of the enzyme mixture (final concentrations 1 mM ATP, 1 mM NAD, 5 mM glucose, 0.85U G6PDH, 37 nM GK) was added (final volume 100 μl), and the mixture was reacted for 10 min at room temperature. The absorbance of NADH was measured at 340 nm using a UV spectrometer (Molecular Device).
The enzyme activating abilities of the compounds according to the present invention are represented as AC1.5 (the compound concentration at which the enzymatic activity is increased by 1.5 times, nM), which is in the range of 0.001 uM to 30 uM or less, preferably 0.001 uM to 10 uM, more preferably 0.001 uM to 1 uM.

| SMILES | AC1.5 (the compound concentration at which the enzymatic activity is increased by 1.5 times) [nM] |
| --- | --- |
| CCOC(=O)CC[C@@H]1CSC(c2cc3cc(OC(F)(F)F)cc(NC4CCCC4)c3[nH]2)=N1 [Example 168, 3-[(R)-2-(7-cyclopentylamino-5-trifluoromethoxy-1H-indol-2-yl)-4,5-dihydro-thiazol-4-yl]-propionic acid ethyl ester] | 15 |
| O=C(O)C[C@@H]1CSC(c2cc3cc(Oc4cccnc4)cc(NC4CCCC4)c3[nH]2)=N1 [Example 57, {(R)-2-[7-cyclopentylamino-5-(pyridin-3-yloxy)-1H-indol-2-yl]-4,5-dihydro-thiazol-4-yl}-acetic acid] | 21 |
| OC[C@@H]1CSC(c2cc3cc(Br)cc(NC4CCOCC4)c3[nH]2)=N1 [Example 11, {(R)-2-[5-bromo-7-(tetrahydro-pyran-4-ylamino)-1H-indol-2-yl]-4,5-dihydro-thiazol-4-yl}-methanol] | 14 |
| c1cc(NC2CCCC2)c2[nH]c(C3=N[C@H](CN4CCCC4)CS3)cc2c1 [Example 15, cyclopentyl-[2-((R)-4-pyrrolidin-1-ylmethyl-4,5-dihydro-thiazol-2-yl)-1H-indol-7-yl]-amine] | 400 |
| c1ccc(Oc2cccc3cc(C4=N[C@H](CCN5CCOCC5)CS4)[nH]c23)cc1 [Example 176, 2-[(R)-4-(2-morpholin-4-yl-ethyl)-4,5-dihydro-thiazol-2-yl]-7-phenoxy-1H-indole] | 178 |
| CS(=O)(=O)N1CCC(Nc2cccc3cc(C4=N[C@H](CO)CS4)[nH]c23)C1 (stereo partly drawn) [Example 4, {(R)-2-[7-(1-methanesulfonyl-pyrrolidin-3-ylamino)-1H-indol-2-yl]-4,5-dihydro-thiazol-4-yl}-methanol] | 217 |
| Clc1cc(NC2CCCC2)c2[nH]c(C3=N[C@H](CCN4CCCCC4)CS3)cc2c1 [Example 104, {5-chloro-2-[(R)-4-(2-piperidin-1-yl-ethyl)-4,5-dihydro-thiazol-2-yl]-1H-indol-7-yl}-cyclopentyl-amine] | 13 |
| O=C1CN(CC[C@@H]2CSC(c3cc4cc(Cl)cc(NC5CCCC5)c4[nH]3)=N2)CCN1 [Example 102] | 7 |
| O=C(O)C[C@@H]1CSC(c2cc3cc(Oc4cccnc4)cc(NC4CCOCC4)c3[nH]2)=N1 [Example 59, {(R)-2-[5-(pyridin-3-yloxy)-7-(tetrahydro-pyran-4-ylamino)-1H-indol-2-yl]-4,5-dihydro-thiazol-4-yl}-acetic acid] | 28 |
| Cc1cc(NC2CCOCC2)c2[nH]c(C3=N[C@H](CC(=O)O)CS3)cc2c1 [Example 62, {(R)-2-[5-methyl-7-(tetrahydro-pyran-4-ylamino)-1H-indol-2-yl]-4,5-dihydro-thiazol-4-yl}-acetic acid] | 36 |
| OC1CCN(CC[C@@H]2CSC(c3cc4cc(Cl)cc(NC5CCCC5)c4[nH]3)=N2)CC1 [Example 101, 1-{2-[(R)-2-(5-chloro-7-cyclopentylamino-1H-indol-2-yl)-4,5-dihydro-thiazol-4-yl]-ethyl}-piperidin-4-ol] | 10 |
| CS(=O)(=O)CC[C@@H]1CSC(c2cc3cc(F)cc(NC4CCOCC4)c3[nH]2)=N1 [Example 138, (5-fluoro-2-[(R)-4-(2-methanesulfonyl-ethyl)-4,5-dihydro-thiazol-2-yl]-1H-indol-7-yl)-(tetrahydro-pyran-4-yl)-amine] | 36 |
| CS(=O)(=O)Cc1cc(NC2CCCC2)c2[nH]c(C3=N[C@H](CCO)CS3)cc2c1 [Example 70, 2-[(R)-2-(7-cyclopentylamino-5-methanesulfonylmethyl-1H-indol-2-yl)-4,5-dihydro-thiazol-4-yl]-ethanol] | 32 |
| O=C(CO)N1CCN(CC[C@@H]2CSC(c3cc4cc(F)cc(NC5CCCC5)c4[nH]3)=N2)CC1 [Example 131, 1-(4-{2-[(R)-2-(7-cyclopentylamino-5-fluoro-1H-indol-2-yl)-4,5-dihydro-thiazol-4-yl]-ethyl}-piperazin-1-yl)-2-hydroxy-ethanone] | 10 |

Second part, the compound after the results:

| AC1.5 (the compound concentration at which the enzymatic activity is increased by 1.5 times) [nM] | SMILES |
| --- | --- |
| 32 | CS(=O)(=O)Cc1cc(NC2CCCC2)c2[nH]c(C3=N[C@H](CO)CS3)cc2c1 [Example 24, [(R)-2-(7-cyclopentylamino-5-methanesulfonylmethyl-1H-indol-2-yl)-4,5-dihydro-thiazol-4-yl]-methanol] |
| 24 | OC[C@@H]1CSC(c2cc3cc(Cl)cc(NC4CCSCC4)c3[nH]2)=N1 [Example 9, {(R)-2-[5-chloro-7-(tetrahydro-thiopyran-4-ylamino)-1H-indol-2-yl]-4,5-dihydro-thiazol-4-yl}-methanol] |
| 6 | CC(=O)N1CCN(CC[C@@H]2CSC(c3cc4cc(Cl)cc(NC5CCCC5)c4[nH]3)=N2)CC1 [Example 97, 1-(4-{2-[(R)-2-(5-chloro-7-cyclopentylamino-1H-indol-2-yl)-4,5-dihydro-thiazol-4-yl]-ethyl}-piperazin-1-yl)-ethanone] |
| 12 | COc1cc(NC2CCCC2)c2[nH]c(C3=N[C@H](CCC(=O)O)CS3)cc2c1 [Example 165, 3-[(R)-2-(7-cyclopentylamino-5-methoxy-1H-indol-2-yl)-4,5-dihydro-thiazol-4-yl]-propionic acid] |
| 7 | OC[C@@H]1CSC(c2cc3cc(F)cc(NC4CCCC4)c3[nH]2)=N1 [Example 5, [(R)-2-(7-cyclopentylamino-5-fluoro-1H-indol-2-yl)-4,5-dihydro-thiazol-4-yl]-methanol] |
| 30 | Cc1ncn(CC[C@@H]2CSC(c3cc4cc(Cl)cc(NC5CCCC5)c4[nH]3)=N2)c1C(=O)O [Example 110, 3-{2-[(R)-2-(5-chloro-7-cyclopentylamino-1H-indol-2-yl)-4,5-dihydro-thiazol-4-yl]-ethyl}-5-methyl-3H-imidazole-4-carboxylic acid] |
| 28 | COC(=O)C[C@@H]1CSC(c2cc3cc(Cl)cc(NC4CCOCC4)c3[nH]2)=N1 [Example 30, {(R)-2-[5-chloro-7-(tetrahydro-pyran-4-ylamino)-1H-indol-2-yl]-4,5-dihydro-thiazol-4-yl}acetic acid methyl ester] |
| 15 | CN(C)CC[C@@H]1CSC(c2cc3cc(Cl)cc(NC4CCCC4)c3[nH]2)=N1 [Example 94, {5-chloro-2-[(R)-4-(2-dimethylamino-ethyl)-4,5-dihydro-thiazol-2-yl]-1H-indol-7-yl}-cyclopentyl-amine] |
| 14 | CNC(=O)C[C@@H]1CSC(c2cc3cc(Cl)cc(NC4CCCC4)c3[nH]2)=N1 [Example 76, 2-[(R)-2-(5-chloro-7-cyclopentylamino-1H-indol-2-yl)-4,5-dihydro-thiazol-4-yl]-N-methyl-acetamide] |

Source: patent US8309586B2, “Glucokinase activators and pharmaceutical compositions containing the same as an active ingredient” (LG Life Sciences Ltd., priority 2007, dated 2012)
